Experimental findings from patent publication US9233921B2, “Potent poxvirus inhibitor” (priority 2013, dated 2016) are described below.

Entries after “also recorded” stand apart in the source; their conditions may differ. Read-outs that look alike come from different tables or passages of the source.

In one data set the test system is BSC-1 cells. Description: Cytotoxicity (CC50).
Another data set has as its system vaccinia virus. Description: microbe, parasite or virus in culture. Type of data set: cell-based, Vaccinia virus (WR strain).
A further data set has as its system mD4-VV hybrid virus. Description: microbe, parasite or virus in culture. It counts as cell-based. Conditions: read-out: IC50 mD4-VV hybrid virus.
Another data set concerns recombinant VACV (vL1Ri). Type of data set: cell-based, vaccinia virus in BSC-1 cells.
Another data set can be described thus: Cytotoxicity (CC50). Conditions: African green monkey, BSC-1 cells.
The mark [1] stands for this setting: Table 5, mean ± SEM of triplicates.
Setting [2] is: Orthopoxvirus vaccinia, BSC-1, read-out: IC50 (antiviral).

For orientation: CC50 means the concentration giving 50% cytotoxicity. Compound `CCCCCCNC(=O)CCc1[nH]c2cc(C)ccc2c1Sc1cc(Cl)cc(Cl)c1` [Compound 24e, 3-(3-((3,5-Dichlorophenyl)thio)-6-methyl-1H-indol-2-yl)-N-hexylpropanamide] displayed a 50% cytotoxic concentration (CC50) in the data set with BSC-1 cells (setting [1]) of 27 ± 4 µM.

By IC50 is commonly meant the concentration needed to halve the response being measured. `Cc1ccc2c(Sc3cc(Cl)cc(Cl)c3)c(CC(N)=O)[nH]c2c1` [Compound 24b, 2-(3-((3,5-Dichlorophenyl)thio)-6-methyl-1H-indol-2-yl)acetamide]: the “SI (selectivity index = CC50/IC50)” value in the data set on vaccinia virus is given as 570. In addition, the half-maximal inhibitory concentration (IC50) in the data set with vaccinia virus (Orthopoxvirus vaccinia) stood at 0.046 µM; in the data set on mD4-VV hybrid virus it was 97 nM. The half-maximal cytotoxic concentration (CC50) in the data set on BSC-1 cells (setting [1]) came to 26 ± 3 µM.

Take `Nc1ccn(C[C@@H](CO)OCP(=O)(O)O)c(=O)n1` [CDV, cidofovir]: the “EGFP expression (late reporter gene)” value in the data set on recombinant VACV (vL1Ri) is listed as “equally effective at a higher dose; also recorded: clearly showed suppression of EGFP when pretreated”. Besides, in the data set with recombinant VACV (vL1Ri) (8 h), the “EGFP expression, compound added after virus adsorption” value was “comparable EGFP expression and CPE to DMSO vehicle; also recorded: EGFP expression comparable to vehicle-treatment”.

For `Cc1ccc2c(Sc3cc(Cl)cc(Cl)c3)c(CCC(=O)O)[nH]c2c1` [Compound 24d, 3-(3-((3,5-Dichlorophenyl)thio)-6-methyl-1H-indol-2-yl)propanoic acid], in the data set with vaccinia virus, the “SI (selectivity index = CC50/IC50)” value turned out to be 152 and the “fold decrease in potency / loss of activity compared to 24a” value was roughly 5 fold. Besides, in the data set with vaccinia virus (Orthopoxvirus vaccinia), the IC50 amounted to 0.244 µM. In the data set with BSC-1 cells (setting [1]), this compound gave a CC50 of 36 ± 14 µM.

As to `Cc1ccc2c(Sc3cc(Cl)cc(Cl)c3)c(CCCC(N)=O)[nH]c2c1` [Compound 24c, 4-(3-((3,5-Dichlorophenyl)thio)-6-methyl-1H-indol-2-yl)butanamide], in the data set with vaccinia virus, the “SI (selectivity index = CC50/IC50)” value turned out to be 115 and the “fold decrease in potency / loss of activity compared to 24a” value is recorded as roughly 5 fold. Also, 0.208 µM corresponded to half-maximal inhibition in the data set on vaccinia virus (Orthopoxvirus vaccinia) (IC50). For the same compound, it took 243 ± 2 µM to reach half-maximal cytotoxicity in “Cytotoxicity (CC50)” (CC50). The IC50 in the data set on mD4-VV hybrid virus came to 199 nM.

Turning to `Cc1ccc2c(Sc3ccc(Cl)cc3)c(C(=O)O)[nH]c2c1` [Compound 1, 3-((4-Chlorophenyl)thio)-6-methyl-1H-indole-2-carboxylic acid], the half-maximal inhibitory concentration (IC50) in the data set on vaccinia virus (Orthopoxvirus vaccinia) and in the data set on vaccinia virus (setting [2]) was 82 µM each time. In the data set “Cytotoxicity (CC50)”, this compound had a CC50 of 192 µM.

Regarding `COC(=O)c1[nH]c2cc(C)ccc2c1Sc1ccc(Cl)cc1` [Compound 6, Methyl 3-((4-chlorophenyl)thio)-6-methyl-1H-indole-2-carboxylate], the 50% inhibitory concentration (IC50) in the data set on vaccinia virus (setting [2]) amounted to 19 µM. For the same compound, in the data set “Cytotoxicity (CC50)”, it took 61 µM to reach half-maximal cytotoxicity (CC50).

Take `Cc1ccc2[nH]c(C(=O)O)c(Sc3ccc(Cl)cc3)c2c1` [Compound 1b, 3-((4-Chlorophenyl)thio)-5-methyl-1H-indole-2-carboxylic acid]: the figures for the IC50 in the data set on vaccinia virus (setting [2]) and with vaccinia virus (read-out: IC50 (antiviral)) were 46 to 86 µM and 46 µM, respectively. In “Cytotoxicity (CC50)”, this compound returned a CC50 of 136 µM.

In the case of `Cc1ccc2c(Sc3cc(Cl)cc(Cl)c3)c(CCC(N)=O)[nH]c2c1` [Compound 24a, 3-(3-((3,5-Dichlorophenyl)thio)-6-methyl-1H-indol-2-yl)propanamide], in the data set with vaccinia virus, the “SI (selectivity index = CC50/IC50)” value is on record as 374. Further, the results for the IC50 in the data set on vaccinia virus (Orthopoxvirus vaccinia) and in the data set with mD4-VV hybrid virus were 0.042 µM and 30 nM, respectively. The midpoint of cytotoxicity in the data set on BSC-1 cells (setting [1]), the CC50, lay at 16 ± 5 µM. Also, the “cytotoxicity within experimental time frame” value in the data set on BSC-1 cells (cells treated 9 h, FIG. 7A) is recorded as “minimal cytotoxicity”.

For the compound “6-Methyl-3-(phenylthio)-1H-indole-2-carboxylate [Compound 29]”, the concentration for half-maximal inhibition (IC50) in the data set with vaccinia virus (read-out: IC50 (antiviral)) amounted to 10 µM. Further, the half-maximal cytotoxic concentration (CC50) with BSC-1 cells (read-out: CC50 (cytotoxicity), BSC-1 cells, NA = not active (assays requiring >200 μM)) was 26 µM.

For the compound `Cc1ccc2c(Sc3ccc(Cl)c(Cl)c3)c(C(=O)O)[nH]c2c1` [Compound 21, 3-((3,4-Dichlorophenyl)thio)-6-methyl-1H-indole-2-carboxylic acid], the “fold activity improvement over the parent 1” value in the data set on vaccinia virus was 2-11 fold. Also, in the data set “Cytotoxicity (CC50)”, the CC50 was found to be 76 µM.
